# In ChEMBL document CHEMBL3576783, “Synthesis and evaluation of 1,2,4-triazolo[1,5-a]pyrimidines as antibacterial agents against Enterococcus faecium” (J Med Chem, 2015):
# Tested on: Enterococcus faecium
# Test: microbe, parasite or virus in culture
# Conditions: NCTC 7171
# Description: Antibacterial activity against Enterococcus faecium NCTC 7171 assessed as bacterial growth inhibition after 16-20 hrs by broth microdilution method
row,SMILES,MIC [mg/L]
1,CC1=C(C(N)=O)C(c2c[nH]c3ccccc23)n2nc(SCc3ccccc3)nc2N1 (stereo unspecified),> 128
2,CC1=C(C(N)=O)C(c2ccc(N(C)C)cc2)n2nc(N)nc2N1 (stereo unspecified),> 128
3,CC1=C(C(N)=O)C(c2ccco2)n2nc(SCc3ccccc3)nc2N1 (stereo unspecified),> 128
4,COc1ccc(C2C(C(N)=O)=C(C)Nc3nc(SCc4ccccc4)nn32)cc1OC (stereo unspecified),> 128
5,COc1ncccc1C1C(C(N)=O)=C(C)Nc2nc(SCc3ccccc3)nn21 (stereo unspecified),128
6,CCc1ccc(C2C(C(N)=O)=C(C)Nc3nc(SCc4ccccc4)nn32)cc1 (stereo unspecified),8
7,CN(C)c1ccc(C2C3=C(CCCC3=O)Nc3nc(SCc4ccccc4)nn32)cc1 (stereo unspecified),> 128
8,CC1=C(C(N)=O)C(c2ncc[nH]2)n2nc(SCc3ccccc3)nc2N1 (stereo unspecified),32
9,CC1=C(C(N)=O)C(c2ccc(N(C)C)cc2)n2nc(SCc3ccc(SC(F)(F)F)cc3)nc2N1 (stereo unspecified),8
10,CCN(CC)c1ccc(C2C(C(N)=O)=C(C)Nc3nc(SCc4ccccc4)nn32)cc1 (stereo unspecified),8
11,CC1=C(C(N)=O)C(c2ccc(C(=O)O)cc2)n2nc(SCc3ccccc3)nc2N1 (stereo unspecified),> 128
12,CC1=C(C(N)=O)C(c2cccnc2)n2nc(SCc3ccccc3)nc2N1 (stereo unspecified),> 128
13,COc1ccc(C2C(C(=O)Nc3ccccc3C)=C(C)Nc3nc(SCc4cc(C)ccc4C)nn32)cc1 (stereo unspecified),> 128
14,CC1=C(C(N)=O)C(c2ccc(N3CCCC3)cc2)n2nc(SCc3ccccc3)nc2N1 (stereo unspecified),16
15,CC1=C(C(N)=O)C(c2ccc(N)cc2)n2nc(SCc3ccccc3)nc2N1 (stereo unspecified),> 128
16,COc1ccc(C2C(C(N)=O)=C(C)Nc3nc(SCc4ccccc4)nn32)cc1 (stereo unspecified),> 128
17,CSc1ccc(CSc2nc3n(n2)C(c2ccc(N(C)C)cc2)C(C(N)=O)=C(C)N3)cc1 (stereo unspecified),> 128
18,CC1=C(C(N)=O)C(c2cccc(C(F)(F)F)c2)n2nc(SCc3ccccc3)nc2N1 (stereo unspecified),16
19,CC1=C(C(N)=O)C(c2ccc(N(C)C)cc2)n2ncnc2N1 (stereo unspecified),> 128
20,CC1=C(C(N)=O)C(c2ccc(C(=O)O)cc2)n2nc(SCCNC(=O)OCc3ccccc3)nc2N1 (stereo unspecified),> 128
21,CC1=C(C(N)=O)C(c2ccncc2)n2nc(SCc3ccccc3)nc2N1 (stereo unspecified),> 128

row,SMILES,MIC [mg/L]
1,CC1=C(C(N)=O)C(c2ccc(N(C)C)cc2)n2nc(SCC(N)=O)nc2N1 (stereo unspecified),> 128
2,CCN(CC)CCOc1ccc(C2C(C(N)=O)=C(C)Nc3nc(SCc4ccccc4)nn32)cc1 (stereo unspecified),> 128
3,COc1ccc(C2C3=C(CCCC3=O)Nc3nc(SCc4ccc(F)cc4)nn32)cc1OC (stereo unspecified),> 128
4,CC1=C(C(N)=O)C(c2ccc(N(C)C)cc2)n2nc(Sc3ccccn3)nc2N1 (stereo unspecified),> 128
5,COc1ccc(C2C(C(=O)Nc3ccc(C)cc3C)=C(C)Nc3nc(SCc4cccc(C)c4)nn32)cc1 (stereo unspecified),> 128
6,CC1=C(C(=O)Nc2ccc(C)cc2C)C(c2ccc(F)cc2)n2nc(SCc3cccc(C)c3)nc2N1 (stereo unspecified),> 128
7,CC1=C(C(N)=O)C(c2ccc(O)cc2)n2nc(SCc3ccccc3)nc2N1 (stereo unspecified),> 128
8,CC1=C(C(N)=O)C(c2ccc(N(C)C)cc2)n2nc(SCc3ccc(OC(F)(F)F)cc3)nc2N1 (stereo unspecified),> 128
9,CC1=C(C(N)=O)C(c2ccc(C(F)(F)F)cc2)n2nc(SCc3ccccc3)nc2N1 (stereo unspecified),8
10,CC1=C(C(N)=O)C(c2ccc(CC(C)C)cc2)n2nc(SCc3ccccc3)nc2N1 (stereo unspecified),8
11,CC1=C(C(N)=O)C(c2ccc(Cl)cc2)n2nc(SCc3ccccc3)nc2N1 (stereo unspecified),> 128
12,CC1=C(C(N)=O)C(c2ccc(N(C)C)cc2)n2nc(SCc3ccc(C(=O)O)cc3)nc2N1 (stereo unspecified),> 128
13,CC1=C(C(N)=O)C(c2ccc([N+](=O)[O-])cc2)n2nc(SCc3ccccc3)nc2N1 (stereo unspecified),64
14,CSc1ccc(C2C(C(N)=O)=C(C)Nc3nc(SCc4ccccc4)nn32)cc1 (stereo unspecified),> 128
15,CC1=C(C(N)=O)C(c2ccc[nH]2)n2nc(SCc3ccccc3)nc2N1 (stereo unspecified),> 128
16,CC1=C(C(N)=O)C(c2ccc(F)cc2)n2nc(SCc3ccccc3)nc2N1 (stereo unspecified),128
17,CC1=C(C(N)=O)C(c2cccc(OC(F)(F)F)c2)n2nc(SCc3ccccc3)nc2N1 (stereo unspecified),16
18,CC1=C(C(N)=O)C(c2ccc(SC(F)(F)F)cc2)n2nc(SCc3ccccc3)nc2N1 (stereo unspecified),> 128
19,CCOc1ccccc1C1C2=C(CCCC2=O)Nc2nc(SCc3ccc(C(=O)O)cc3)nn21 (stereo unspecified),> 128
20,CC1=C(C(N)=O)C(c2ccc(N(C)C)cc2)n2nc(SCCNC(=O)OCc3ccccc3)nc2N1 (stereo unspecified),> 128
